Measured values taken from patent publication US20240246981A1, “[…] DERIVATIVES AS INHIBITORS OF […]-PEPTIDE CYCLOTRANSFERASE AND […]-PEPTIDE CYCLOTRANSFERASE LIKE PROTEIN” (Boehringer Ingelheim International GmbH, priority 2022, published 2024).
pIC50: −log10 of the molar value. Where two headings read alike, the source gives them in different places.

What was measured:
[1] = system: SIRPα signalling induced by Raji cells; assay: Assay B: SIRPα signalling assay using Raji cells; type: cell-based, human; conditions: Homo sapiens
Method: Bioassay reagent 1 of the PathHunter Bioassay detection kit (DiscoverX 93-0001) was added to each well of the plate using a multichannel pipette followed by a 15 min incubation at room temperature. Afterwards bioassay reagent 2 was added followed by 60 min incubation at room temperature (incubation in the dark).
(§1) The analysis of the data was performed using the luminescence signal generated by beta-galactosidase in the PathHunter reporter cell line. The luminescence measurement was done using a Pherastar Multi-Mode Reader.

QPCTL = QPCTL (Homo sapiens (Human), UniProt Q9NXS2); assay: Assay A: biochemical QPCTL activity assay (MALDI-TOF MS); conditions: compounds of the invention, Table 2; read-out: Inhibition of QPCTL: IC50
Method: (§2) QPCT or QPCTL dependent conversion of N-terminal glutamine to pyroglutamate of CD47 was monitored via MALDI-TOF MS. Test compounds were dissolved in 100% DMSO and serially diluted into clear 1,536-well microtiter plates. Enzymatic reactions were set up in assay buffer containing 20 mM Tris pH 7.5, 0.1 mM TCEP, 0.01% BSA, and 0.001% Tween20. […] The plates were incubated for 10 min in a humidified incubator at 24° C. Subsequently, 2.5 μL of CD47 peptide substrate surrogate (^19[…]^33) was added to each well (final concentration: 10 μM for QPCTL/20 μM for QPCT). The plates were mixed for 30 sec at 1,000 rpm and subsequently incubated for 40 min in a humidified incubator at 24° C. […] The plates were sealed with an adhesive foil, mixed for 30 s at 1,000 rpm and stored at room temperature until preparation of the MALDI target plates. […] QPCT or QPCTL activity was monitored by calculating the ratio between product and internal standard signals followed by normalization to high (100% activity) and low (0% activity) controls. Determination of compound potencies was obtained by fitting the dose-response data to a four-parameter logistical equation.

QPCT = QPCT (Homo sapiens (Human), UniProt Q16769); assay: Assay A: biochemical QPCT activity assay (MALDI-TOF MS); conditions: compounds of the invention, Table 2; read-out: Inhibition of QPCT: IC50
Method: as §2

[2] = Assay C: permeability in CACO-2 cells; type: in vitro ADME; conditions: human, pH 7.2; for Papp A→B / Papp A→B at 2 h: Caco-2, apical to basolateral; for efflux ratio / efflux ratio at 2 h: Caco-2
Method: Compounds are dissolved in appropriate solvent (like DMSO, 1-20 mM stock solutions). […] The transport solution (TL) is applied to the apical or basolateral donor side for measuring A-B or B-A permeability (3 filter replicates), respectively. Samples are collected at the start and end of experiment from the donor and at various time intervals for up to 2 hours also from the receiver side for concentration measurement by HPLC-MS/MS or scintillation counting. Sampled receiver volumes are replaced with fresh receiver solution.

[3] = system: SIRPα signalling induced by A549 cells; assay: Assay B: SIRPα signalling assay using A549 cells; type: cell-based, human; conditions: Homo sapiens
Method: Two cell types are independently used: the Raji cell line (lymphoblastlike human cell line derived from B lymphocytes from a Burkitt's lymphoma patient in 1963) and A549 cells (adenocarcinomic human alveolar basal epithelial cells).
Test compounds were dissolved in 100% DMSO and serially diluted into a white 384-well microtiter cell culture plate (PerkinElmer #60076780 in case of Raji assay; PDL-coated plates Greiner #781945 in case of A549 assay). 5000 Raji cells (ATCC #CC86) or 5000 A549 cells (ATCC #CCL-185) in Assay Complete Cell Plating reagent 30 (DiscoverX 93-0563R30B) were added per well. The assay plate was incubated for 48 h at 37° C., 95% humidity and 5% CO2. 15000 reporter cells (Jurkat PathHunter SIRPα V1, DiscoverX #93-1135C19) were added to each well, and the plate was incubated for 5 h at 37° C., 95% humidity and 5% CO2. Bioassay reagent 1 of the PathHunter Bioassay detection kit (DiscoverX 93-0001) was added to each well of the plate using a multichannel pipette followed by a 15 min incubation at room temperature. Afterwards bioassay reagent 2 was added followed by 60 min incubation at room temperature (incubation in the dark).
as §1, with “Reader. Dose-response curves & IC50 data were calculated with 4-parameter sigmoidal dose response formula.” for “Reader.”

[4] = compounds of the invention, Table 4, read-out: Inhibition of SIRα signalling induced by Raji cells: IC50
[5] = compounds of the invention, Table 7
[6] = compounds of the invention, Table 4, read-out: Inhibition of SIRα signalling induced by A549 cells: IC50

Sequence of QPCT (Q16769 29-361): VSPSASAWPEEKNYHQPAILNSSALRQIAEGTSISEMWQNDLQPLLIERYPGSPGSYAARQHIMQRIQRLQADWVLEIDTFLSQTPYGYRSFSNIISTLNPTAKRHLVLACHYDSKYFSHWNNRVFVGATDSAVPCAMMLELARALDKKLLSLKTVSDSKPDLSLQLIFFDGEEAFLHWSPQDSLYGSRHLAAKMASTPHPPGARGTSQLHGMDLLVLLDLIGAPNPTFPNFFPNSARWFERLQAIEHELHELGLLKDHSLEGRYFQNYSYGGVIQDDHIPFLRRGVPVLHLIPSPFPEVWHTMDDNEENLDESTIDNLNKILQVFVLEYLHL
Sequence of QPCTL (Q9NXS2 whole entry): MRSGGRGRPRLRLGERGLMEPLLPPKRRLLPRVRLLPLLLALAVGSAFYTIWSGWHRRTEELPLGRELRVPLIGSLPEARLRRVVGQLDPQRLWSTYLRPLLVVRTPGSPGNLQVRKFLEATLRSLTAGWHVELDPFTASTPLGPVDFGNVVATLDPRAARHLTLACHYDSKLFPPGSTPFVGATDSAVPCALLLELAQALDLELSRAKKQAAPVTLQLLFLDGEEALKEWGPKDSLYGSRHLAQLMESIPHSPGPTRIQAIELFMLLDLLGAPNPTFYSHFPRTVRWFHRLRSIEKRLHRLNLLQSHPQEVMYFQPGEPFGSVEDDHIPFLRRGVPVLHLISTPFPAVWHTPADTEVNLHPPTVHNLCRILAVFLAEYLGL

pIC50 [1, 4]	pIC50 (QPCTL)	pIC50 (QPCT)	Papp A→B [2, 5] [×10⁻⁶ cm/s]	efflux ratio [2, 5]	pIC50 [3, 6]	Papp A→B at 2 h [2, 5] [×10⁻⁶ cm/s]	efflux ratio at 2 h [2, 5]	pIC50 ([1]; prior art compounds, Table 5, read-out: Inhibition of SIRPα signalling induced by Raji cells: IC50)	Papp A→B at 2 h ([2]; prior art compounds, Table 8) [×10⁻⁶ cm/s]	pIC50 ([3]; prior art compounds, Table 5, read-out: Inhibition of SIRPα signalling induced by A549 cells: IC50)	Structure (SMILES)
6.15	7.92	7.29	25	1.8	7.40	–	–	–	–	–	Cn1cnnc1C1CCN(c2c(C#N)cccc2-c2cnsc2)CC1 [compound 2]
6.88	8.30	7.54	10	5.1	7.74	–	–	–	–	–	Cn1cnnc1C1CCN(c2c(C#N)cccc2-c2cncc(C3CCCCO3)c2)CC1 (stereo not drawn) [compound 39]
7.72	9.00	8.70	34	2.4	8.00	–	–	–	–	–	Cn1cnnc1C1CCN(c2c(C#N)cccc2-c2cnc(F)c(OCC3CC3)c2)CC1 [compound 36]
6.49	–	–	–	–	6.95	23	2	–	–	–	Cn1cnnc1C1CCN(c2c(C#N)cccc2-c2cnc(F)c(OC(F)F)c2)CC1 [Example 37]
6.85	8.40	7.59	0.8	31.6	6.76	–	–	–	–	–	Cn1nc2cc(-c3cccc(C#N)c3N3CCC(c4nncn4C)CC3)cnc2n1 [compound 45]
7.68	9.00	9.00	4.9	19	7.96	–	–	–	–	–	Cn1cnnc1C1(F)CCN(c2c(C#N)cccc2-c2cnc3nn(C(C)(C)C)cc3c2)CC1 [compound 62]
6.80	9.00	8.22	0.3	28.1	7.16	–	–	–	–	–	Cn1cnnc1C1CCN(c2c(C#N)cccc2-c2ccnnc2)CC1 [compound 32]
5.98	–	–	–	–	–	9.8	4.9	–	–	–	Cn1cnnc1C1(C)CCN(c2c(C#N)cccc2-c2cccnc2)CC1 [Example 65]
6.58	8.40	8.10	3.3	14.8	6.91	–	–	–	–	–	Cn1cnnc1C1(F)CCN(c2c(C#N)cccc2-c2cnc3nc(C(F)(F)F)nn3c2)CC1 [compound 73]
7.04	8.52	8.22	33	1.8	7.20	–	–	–	–	–	Cn1cnnc1C1(F)CCN(c2c(C#N)cccc2-c2cnc3nc(-c4cccc(Cl)c4)ccn23)CC1 [compound 84]
7.28	9.00	8.05	39	2	7.74	–	–	–	–	–	CC(C)Oc1cc(-c2cccc(C#N)c2N2CCC(c3nncn3C)CC2)cnc1F [compound 19]
7.00	8.52	8.70	30	1.4	7.85	–	–	–	–	–	Cn1cnnc1C1(C)CCN(c2c(C#N)cccc2-c2ccc(F)nc2)CC1 [compound 66]
6.38	7.92	7.24	2.7	23.7	6.61	–	–	–	–	–	Cn1cnnc1C1CCN(c2c(C#N)cccc2-c2cnc3c(c2)CCCO3)CC1 [compound 12]
7.54	9.00	8.52	50	0.7	8.15	–	–	–	–	–	Cn1cnnc1C1(F)CCN(c2c(C#N)cccc2-c2ccc(F)nc2)CC1 [compound 56]
7.40	9.00	8.30	2.6	22.3	7.34	–	–	–	–	–	Cn1cnnc1C1CCN(c2c(C#N)cccc2-c2cncc3cnn(Cc4ccccc4)c23)CC1 [compound 76]
6.37	8.30	7.62	–	–	6.42	0.4	48.6	–	–	–	Cn1cnnc1C1CCN(c2c(C#N)cccc2-c2cnc3n[nH]cc3c2)CC1 [compound 26]
7.77	–	9.00	0.5	100	7.80	–	–	–	–	–	Cn1cnnc1C1(F)CCN(c2c(C#N)cccc2-c2cnc3nn(CC(F)F)cc3c2)CC1 [compound 60]
7.28	–	–	–	–	7.60	22	3.3	–	–	–	Cn1cnnc1C1CCN(c2c(C#N)cccc2-c2cnc(F)c(OC3CCC3)c2)CC1 [Example 34]
6.32	7.82	7.00	4.4	13.4	–	–	–	–	–	–	COC(=O)c1cncc(-c2cccc(C#N)c2N2CCC(c3nncn3C)CC2)c1 [compound 27]
6.43	–	–	–	–	7.01	20	1.9	–	–	–	Cn1cnnc1C1CCN(c2c(C#N)cccc2-c2cnc(F)c(Oc3ccccc3)c2)CC1 [Example 38]
6.31	–	–	–	–	6.60	< 0.3	> 4.3	–	–	–	Cn1cnnc1C1(F)CCN(c2c(C#N)cccc2-c2cnc(=O)n(C)c2)CC1 [Example 58]
7.96	–	–	0.5	56.9	8.00	–	–	–	–	–	Cn1cnnc1C1(F)CCN(c2c(C#N)cccc2-c2cnc3nc(C(C)(C)C)[nH]c3c2)CC1 [compound 69]
7.42	–	–	–	–	7.36	1.4	40	–	–	–	Cn1cnnc1C1(F)CCN(c2c(C#N)cccc2-c2cnc3nn(CC(F)(F)F)cc3c2)CC1 [Example 55]
6.07	–	9.00	0.1	11.1	6.69	–	–	–	–	–	Cn1cnnc1C1(F)CCN(c2c(C#N)cccc2-c2cnc(O)nc2)CC1 [compound 54]
5.97	–	–	–	–	6.47	10.1	7.1	–	–	–	Cn1cnnc1C1CCN(c2c(C#N)cccc2-c2cncc(OC(F)F)c2)CC1 [compound 23, reference compound]
6.12	8.52	7.68	0.1	50.9	–	–	–	–	–	–	Cn1cnnc1C1CCN(c2c(C#N)cccc2-c2cncc(C(N)=O)c2)CC1 [compound 14]
–	–	–	–	–	–	–	–	< 5.00	0.7	< 5.00	Cn1cnnc1C1CCN(S(=O)(=O)c2cccc(Nc3ccc(F)nc3)c2)CC1 [compound 21, reference compound]
6.51	7.96	7.42	–	–	–	–	–	–	–	–	Cn1cnnc1C1CCN(c2c(C#N)cccc2-c2cncc(CO)c2)CC1 [compound 9]
5.88	–	–	–	–	6.28	33	2.8	–	–	–	Cn1cnnc1C1CCN(c2c(C#N)cccc2-c2cncc(-c3ccccc3)c2)CC1 [compound 21, reference compound]

Structure (SMILES)	pIC50 [1, 4]	pIC50 (QPCTL)	pIC50 (QPCT)	Papp A→B [2, 5] [×10⁻⁶ cm/s]	efflux ratio [2, 5]	pIC50 [3, 6]	Papp A→B at 2 h [2, 5] [×10⁻⁶ cm/s]	efflux ratio at 2 h [2, 5]	pIC50 ([1]; prior art compounds, Table 5, read-out: Inhibition of SIRPα signalling induced by Raji cells: IC50)	Papp A→B at 2 h ([2]; prior art compounds, Table 8) [×10⁻⁶ cm/s]	pIC50 ([3]; prior art compounds, Table 5, read-out: Inhibition of SIRPα signalling induced by A549 cells: IC50)
Cn1cnnc1C1CCN(c2c(C#N)cccc2-c2cnc3nn(C)c(C(F)(F)F)c3c2)CC1 [Example 41]	7.06	–	–	–	–	7.01	2.9	–	–	–	–
Cn1cnnc1C1CCN(c2c(C#N)cccc2-c2ccc(F)nc2)CC1 [Example 1]	–	–	–	–	–	8.05	28	–	–	–	–
